Reference: US6559173B1, “3-(heteroarylamino)methylene-1,3-dihydro-2H-indol-2-ones as kinase inhibitors” (Allergan, Inc., priority 2001, dated 2003)

Legend:
[1] = tested on: VEGF induced increases in intracellular calcium levels in HUVEC (human umbilical vein endothelial cells); experiment: VEGF Stimulated Ca++ signal assay (FLIPR); assay type: cell-based; conditions: VEGF 5 ng/mL; for IC50: 0.01 to 10.0 μM
Method: VEGF Stimulated Ca^++ Signal in vitro
Automated FLIPR (Fluorometric Imaging Plate Reader) technology was used to screen for inhibitors of VEGF induced increases in intracellular calcium levels in fluorescent dye loaded endothelial cells. HUVEC (human umbilical vein endothelial cells) (Clonetics) were seeded in 96-well fibronectin coated black-walled plates overnight @ 37° C./5%CO2. Cells were loaded with calcium indicator Fluo-4 for 45 minutes at 37° C. Cells were washed 4 times (Original Cell Wash, Labsystems) to remove extracellular dye. Test compounds were reconstituted in 100% DMSO and added to the cells to give a final DMSO concentration of 0.1%. For screening, cells were pre-incubated with test agents for 30 minutes, at a single concentration (10 μM) or at concentrations ranging from 0.01 to 10.0 μM followed by VEGF stimulation (5 ng/mL). Changes in fluorescence at 516 nm were measured simultaneously in all 96 wells using a cooled CCD camera. Data were generated by determining max-min fluorescence levels for unstimulated, stimulated, and drug treated samples. IC50 values for test compounds were calculated from % inhibition of VEGF stimulated responses in the absence of inhibitor.

[2] = biological target: T1, cytoplasmic domain of the human VEGF receptor (VEGFR-2) (Homo sapiens, UniProt P35968); experiment: KDR Assay; assay type: biochemical; conditions: His-VEGFR-2, 3.6 μM ATP, poly-Glu-Tyr (4:1)
T1 construct: The cytoplasmic domain of the human VEGF receptor (VEGFR-2) was expressed as a Histidine-tagged fusion protein; His tag (Histidine-tagged fusion); made in house; host or cells: insect cells (engineered baculovirus)
Method: The cytoplasmic domain of the human VEGF receptor (VEGFR-2) was expressed as a Histidine-tagged fusion protein following infection of insect cells using an engineered baculovirus. His-VEGFR-2 was purified to homogeneity, as determined by SDS-PAGE, using nickel resin chromatography. Kinase assays were performed in 96 well microtiter plates that were coated overnight with 30 μg of poly-Glu-Tyr (4:1) in 10 mM Phosphate Buffered Saline (PBS), pH 7.2-7.4. The plates were incubated with 1% BSA and then washed four times with PBS prior to starting the reaction. Reactions were carried out in 120 μL reaction volumes containing 3.6 μM ATP in kinase buffer (50 mM Hepes buffer pH 7.4, 20 mM MgCl2, 0.1 mM MnCl2 and 0.2 mM Na3VO4). Test compounds were reconstituted in 100% DMSO and added to the reaction to give a final DMSO concentration of 5%. Reactions were initiated by the addition 0.5 ng of purified protein. Following a ten minute incubation at 25° C., the reactions were washed four times with PBS containing 0.05% Tween-20. 100 μl of a monoclonal anti-phosphotyrosine antibody-peroxidase conjugate was diluted 1:10000 in PBS-Tween-20 and added to the wells for 30 minutes. Following four washes with PBS-Tween-20, 100 μl of 0-Phenylenediamine Dihydrochloride in Phosphate-citrate buffer, containing urea hydrogen peroxide, was added to the wells for 7 minutes as a colorimetric substrate for the peroxidase. The reaction was terminated by the addition of 100 μl of 2.5N H2SO4 to each well and read using a microplate ELISA reader set at 492 nm. IC50 values for compound inhibition were calculated directly from graphs of optical density (arbitrary units) versus compound concentration following subtraction of blank values.

[3] = Homo sapiens, 10 μM, 30 min pre-incubation

T1 sequence (P35968 786-1356 limits assumed): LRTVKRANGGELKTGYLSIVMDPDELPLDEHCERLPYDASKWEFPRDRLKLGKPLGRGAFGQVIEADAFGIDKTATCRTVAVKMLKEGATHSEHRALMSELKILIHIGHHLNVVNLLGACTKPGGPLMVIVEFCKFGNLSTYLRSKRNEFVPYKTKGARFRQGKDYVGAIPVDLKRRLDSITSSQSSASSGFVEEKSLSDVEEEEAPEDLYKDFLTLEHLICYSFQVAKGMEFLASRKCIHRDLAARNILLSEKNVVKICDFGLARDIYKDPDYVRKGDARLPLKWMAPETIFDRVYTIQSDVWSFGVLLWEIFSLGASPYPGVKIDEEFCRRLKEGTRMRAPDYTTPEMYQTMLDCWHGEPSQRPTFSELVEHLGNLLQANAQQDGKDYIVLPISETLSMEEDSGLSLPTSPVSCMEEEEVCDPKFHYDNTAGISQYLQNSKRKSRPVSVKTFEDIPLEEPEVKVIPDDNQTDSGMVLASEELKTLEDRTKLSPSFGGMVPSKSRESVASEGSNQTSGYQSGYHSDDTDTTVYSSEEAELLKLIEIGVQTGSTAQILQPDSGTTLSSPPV

Compound	VEGF Stimulated Ca++ signal assay % inhibition @10 μM ([1]; 10 μM, 30 min pre-incubation) [%]	IC50 [1] [nM]	inhibition at 10 µM [1, 3] [%]	IC50 ([1]; Homo sapiens) [nM]	IC50 [2] [nM]
3-[(1-H-Pyrazol-3 ylamino)methylene]-1,3-dihydro-indol-2-one [Example 1]	92.8	3000	–	–	–
O=C1Nc2ccccc2C1=CNc1cc(-c2ccccc2)[nH]n1 [Example 2, 3-[(5-Phenyl-H-pyrazol-3-ylamino)-methylene]-1,3-dihydro-indol-2-one]	–	–	90.5	1330	580
Cc1ccc(-c2cc(NC=C3C(=O)Nc4ccccc43)n[nH]2)cc1 [Example 3, 3-[(5-P-Tolyl-1H-pyrazol-3-ylamino)-methylene]-1,3-dihydro-indol-2-one]	–	–	74	2440	840
O=C1Nc2ccccc2C1=CNc1cc(-c2ccco2)[nH]n1 [Example 4, 3-[(5-Furan-2-yl-1H-pyrazol-3-ylamino)-methylene]-1,3-dihydro-indol-2-one]	–	700	92.6	≤ 1000	850
COc1ccc(Cc2cc(NC=C3C(=O)Nc4ccccc43)n[nH]2)cc1 [Example 5, 3-{[5-(4-Methoxy-benzyl)-1H-pyrazol-3-ylamino]-methylene}-1,3-dihydro-indol-2-one]	–	500	98	≤ 1000	180
Cc1cccc2c1C(=CNc1cc(-c3ccco3)[nH]n1)C(=O)N2 [Example 7, 3-[(5-Furan-2-yl-1H-pyrazol-3-ylamino)-methylene]-4-methyl-1,3-dihydro-indol-2-one]	–	920	98.3	≤ 1000	540
Cc1cccc2c1C(=CNc1cc(-c3ccccc3)[nH]n1)C(=O)N2 [Example 8, 4-Methyl-3-[(5-phenyl-1H-pyrazol-3-ylamino)-methylene]-1,3-dihydro-indol-2-one]	–	–	64.5	3170	970
O=C1Nc2ccc(Cl)cc2C1=CNc1cc[nH]n1 [Example 9, 5-Chloro-3-[(1H-pyrazol-3-ylamino)-methylene]-1,3-dihydro-indol-2-one]	–	–	90	6140	1130
O=C1Nc2ccc(Cl)cc2C1=CNc1cc(-c2ccco2)[nH]n1 [Example 10, 3-[(5-Furan-2-yl-1H-pyrazol-3-ylamino)-methylene]-5-chloro-1,3-dihydro-indol-2-one]	–	–	76	3230	1030
O=C1Nc2ccccc2C1=CNc1n[nH]c(-c2ccccc2)c1Br [Example 11, 3-[(4-Bromo-5-phenyl-1H-pyrazol-3-ylamino)-methylene]-1,3-dihydro-indol-2-one]	–	–	23.4	–	–
Cc1cccc2c1C(=CNc1n[nH]c(-c3ccccc3)c1Br)C(=O)N2 [Example 12, 3-[(4-Bromo-5-phenyl-1H-pyrazol-3-ylamino)-methylene]-4-methyl-1,3-dihydro-indol-2-one]	–	–	-12.9	–	–
O=C1Nc2ccc(Cl)cc2C1=CNc1n[nH]c(-c2ccccc2)c1Br [Example 13, 3-[(4-Bromo-5-phenyl-1H-pyrazol-3-ylamino)-methylene]-5chloro-1,3-dihydro-indol-2-one]	–	–	-19.1	–	–
O=C1Nc2ccc(Cl)cc2C1=CNc1cc(-c2ccccc2)[nH]n1 [Example 14, 5-Chloro-3-[(5-phenyl-1H-pyrazol-3-ylamino)-methylene]-1,3-dihydro-indol-2-one]	–	–	27.4	–	–
O=C1Nc2ccccc2C1=CNc1n[nH]c2cccc(F)c12 [Example 15, 3-[(4-Fluoro-1H-indazol-3-ylamino)-methylene]-1,3-dihydro-indol-2-one]	–	–	6.16	–	–
COc1ccc(-c2c(C)n[nH]c2NC=C2C(=O)Nc3ccccc32)cc1OC [Example 16, 3-{[4-(3,4-Dimethoxy-phenyl)-5-methyl-2H-pyrazol-3-ylamino]-methylene}-1,3-dihydro-indol-2-one]	–	–	-1.47	–	–
CCOC(=O)c1c[nH]nc1NC=C1C(=O)Nc2ccccc21 [Example 17, 3-[(2-Oxo-1,2-dihydro-indol-3-ylidenemethyl)-amino]-1H-pyrazole-4-carboxylic acid ethyl ester]	–	–	27.2	–	–
CSc1[nH]nc(NC=C2C(=O)Nc3ccccc32)c1C#N [Example 18, 5-Methylsulfanyl-3-[(2-oxo-1,2-dihydro-indol-3-ylidenemethyl)-amino]-1H-pyrazole-4-carbonitrile]	–	–	14.1	–	–
O=C1Nc2ccccc2C1=CNc1n[nH]cc1C(=O)O [Example 19, 3-[(2-Oxo-1,2-dihydro-indol-3-ylidenemethyl)-amino]-1H-pyrazole-4-carboxylic acid]	–	–	-0.89	–	–
N#Cc1c[nH]nc1NC=C1C(=O)Nc2ccccc21 [Example 20, 3-[(2-Oxo-1,2-dihydro-indol-3-ylidenemethyl)-amino]-1H-pyrazole-4-carbonitrile]	–	–	35.8	–	–
O=C1Nc2ccccc2C1=CNc1n[nH]cc1Br [Example 21, 3-[(4-Bromo-1H-pyrazol-3-ylamino)-methylene]-1,3-dihydro-indol-2-one]	–	–	32.1	–	–
CC(C)(C)c1cc(NC=C2C(=O)Nc3ccccc32)n[nH]1 [Example 22, 3-[(5-tert-Butyl-1H-pyrazol-3-ylamino)-methylene]-1,3-dihydro-indol-2-one]	–	–	98.3	6090	5780
Cc1cc(NC=C2C(=O)Nc3ccccc32)n[nH]1 [Example 23, 3-[(5-Methyl-1H-pyrazol-3-ylamino)-methylene]-1,3-dihydro-indol-2-one]	–	900	94.7	≤ 1000	370
COC(=O)c1ccc(-c2cc(NC=C3C(=O)Nc4ccccc43)n[nH]2)cc1 [Example 24, 4-{5-[(2-Oxo-1,2-dihydro-indol-3-ylidenemethyl)-amino]-2H-pyrazol-3-}-benzoic acid methyl ester]	–	–	56.9	≥ 10000	–
Cc1cc(C)c2c(NC=C3C(=O)Nc4ccccc43)n[nH]c2n1 [Example 25, 3-[(4,6-Dimethyl-1H-pyrazolo[3,4-b]pyridin-3-ylamino)-methylene]-1,3-dihydro-indol-2-one]	–	–	15.1	–	–
COc1ccc(-c2cc(NC=C3C(=O)Nc4ccccc43)[nH]n2)cc1 [Example 30, 3-{[5-(4-Methoxy-phenyl)2H-pyrazol-3-ylamino]-methylene}-1,3-dihydro-indol-2-one]	–	–	12.3	–	–
O=C1Nc2ccccc2C1=CNc1cc(-c2cc(OCc3ccccc3)cc(OCc3ccccc3)c2)n[nH]1 [Example 31, 3-{[5-(3,5-Bis-benzyloxy-phenyl)-2H-pyrazol-3-ylamino]-methylene}-1,3-dihydro-indol-2-one]	–	–	-12.9	–	–
Cc1ccc(-c2cc(NC=C3C(=O)Nc4ccccc43)[nH]n2)c(C)c1 [Example 34, 3-{[5-(2,4-Dimethyl-phenyl)2H-pyrazol-3-ylamino]-methylene}-1,3-dihydro-indol-2-one]	–	–	58.8	7640	–
Cc1cccc(Cc2cc(NC=C3C(=O)Nc4ccccc43)[nH]n2)c1 [Example 39, 3-{[5-(3-Methyl-benzyl)-2H-pyrazol-3-ylamino]-methylene}-1,3-dihydro-indol-2-one]	–	–	-12.6	–	–
O=C1Nc2ccccc2C1=CNc1cc(Cc2ccccc2)n[nH]1 [Example 40, 3-[(5-Benzyl-2H-pyrazol-3-ylamino)-methylene]-1,3-dihydro-indol-2-one]	–	–	-0.03	–	–
Cc1cc(NC=C2C(=O)Nc3cc(F)ccc32)n[nH]1 [Example 49, 6-Fluoro-3-[(5-methyl-1H-pyrazol-3-ylamino)-methylene]-1,3-dihydro-indol-2-one]	–	–	–	–	570
